In patent US8334253B2, “Cosmetic and dermatological formulations of MNTF peptides” (Dermacare Neuroscience Institute, priority 2008, dated 2012):
Peptide text beside a SMILES is read from it. * marks the point of attachment. Palmitoyl = CCCCCCCCCCCCCCCC(=O)*

Tests used:
Format in all cases: cell-based
[1] = test system: gamma interferon-induced NO production in epidermal keratinocytes; assay: Inhibition of gamma interferon-induced nitric oxide production in keratinocytes (Griess reaction); settings: keratinocytes, 48 hours, gamma-interferon 300 U/ml
Excerpt: The study method chosen is similar to that published in the reference Tsai et al. (Tsai et al, Inhibition of inflammatory nitric oxide production and epidermis damages by Saccharomycopsis Ferment Filtrate. J Dermatol Sci 2006 June 42 (3): 249-57. Laskin, Multifunctional Role of Nitric Oxide in Inflammation, Trends Endocrinol Metab 1994; 5:377-382. Lyons, Emerging Roiles of Nitric Oxide in Inflammation, Hospital Practice, Jul. 15, 1996: 69-86.)
The objective of the study was to investigate the inhibition effect of Pal-hexapeptide (SEQ ID NO: 2, in palmitylated form) on gamma interferon-induced NO production in epidermal keratinocytes in culture.
Anti-inflammatory effect was observed as a reduction of nitric oxide production in keratinocytes. Keratinocytes were incubated 48 hours with gamma-interferon (300 U/ml) alone (as control) or with gamma-interferon together with different concentrations (0.1 μM, 1 μM, 10 μM, 100 μM and 1000 μM) of Pal-hexapeptide. Gamma interferon plus aminoguanidine (10 mg/mL) was used as positive control. The amount of NO production was detected by Griess reaction. Nitric oxide readily oxides to nitrite in aqueous medium, and this reaction was measured as nitrite accumulation in the medium. […] The optical density of the wells were read using a Tibertek Mutiskan (MCC microplate reader at a wavelength of 540 nm, subtracting the absorbance at a reference wavelength of 620 nm.) A printout of the absorbance values was generated by the plate reader, and data were entered into an EXCEL spreadsheet for analysis. The average absorbance and standard deviations were expressed as percent of control absorbances.

[2] = test system: human keloid fibroblasts; assay: Human keloid fibroblast proliferation kinetic study; settings: for inhibition of proliferation of human keloid fibroblasts: cell counts on days 1-4, Trypan blue exclusion
Experimental: Keloid can be characterized as a hyperproliferation/growth of fibrous scar tissue following trauma to the skin. […] Experimental protocols were based on a published study design for keloid fibroblast growth kinetics and is as described in Polo et al., 1999, Ann. Plastic Surg. 43 (2):185-190.
Briefly, fibroblasts were cultured from skin tissue obtained from fresh surgical specimens. The skin specimen was rinsed in 10 ml of calcium- and magnesium-free Dulbecco's phosphate-buffered saline (Sigma Chemical Co, St. Louis, Mo.) supplemented with gentamycin ([…]) for 30 minutes at room temperature. A second antibiotic rinse using 1% 10,000 U per milliliter penicillin G, 25 micrograms per milliliter amphotericin B, 10,000 micrograms per milliliter streptomycin sulfate solution (Gibco BRL, Gran Island, N.Y.) was performed for 10 minutes. The epidermis was separated from the dermis from each piece. The specimen was cut into four pieces of equal dimensions. Each piece was placed dermis-side down into a 60-mm culture dish containing Dispase solution (Collaborative Biomedical Products, Bedford, Mass.). The explants were incubated with no additional culture media for 15 minutes at 37° C. A total of 10 ml Dulbecco's modified Eagle's medium (DMEM; Gibco BRL) was added slowly to the culture dish, which was then incubated at 37° C. at 5% carbon dioxide. The cells were subcultured until 80% confluence was obtained. Trypsin-ethylenediaminetetraacetic acid (Gibco BRL) was added to […] the cells from the surface of the culture plate, and the cells were washed with DMEM and transferred to a centrifuge tube. […] The cells were counted using a hemocytometer, and their cell number was adjusted to 1×10^6 cells, which were then plated on a 35-mm Petri dish with 2 ml DMED and 1% fetal bovine serum, and incubated at 37° C. in 5% carbon dioxide. […]
Samples from each group were removed on days 1, 2, 3 and 4. The cells from each sample were trypsinized, washed, centrifuged, and resuspended in 1 ml DMEM; and were counted using the Trypan blue dye exclusion method and a hemocytometer.

[3] = test system: hyaluronic acid levels in adult human dermal fibroblast (aHDF) conditioned media; assay: Hyaluronic acid in fibroblast-conditioned medium (HA-ELISA); settings: 96 h
Excerpt: Hyaluronic acid (hyaluronan, HA), a naturally occurring carbohydrate polymer is a key component of connective, epithelial and neural tissues. HA participates in hydrodynamics, movement and proliferation of cells. This test was designed to determine whether a sample of palmitylated and non-palmitylated MNTF hexapeptide has an effect on hyaluronic acid levels in the adult human dermal fibroblast (aHDF) conditioned media.
Adult HDF (facial, passage 2, Cell Applications, San Diego, Calif. cat.#106-05A lot#1392) were plated in high glucose phosphate-free DMEM supplemented with 5% cosmic serum from Hyclone, Utah) at 6,000 cells per well and test materials were added the following day. Test materials were: Pal-Hexapeptide (palmitylated SEQ ID NO:2 as a lyophilized powder labeled APC 341055, lot V08150A1, received from DermaCare Neuroscience Institute), type I sterile water (negative control) and basic fibroblast growth factor (bFGF, positive control). Pal-Hexapeptide was dissolved in water at 20 mg/ml. Final concentrations tested were: 400, 200, 100, 50 and 25 ug/ml for DNP and 5 ng/ml for bFGF (plate 507). After 96 h, cell culture conditioned media were collected and 100 ul aliquotes were used for the HA assay. HA assay was performed using Hyaluronan Enzyme-Linked Immunosorbent Assay Kit (HA-ELISA, cat. #K-1200) from Echelon (Salt Lake City, Utah). The HA output was measured by following the generation of a chromophoric reaction product in 96 well plate, with the use of a BioRad microplate reader at 410 nm and the effect of the test materials was determined using the formula: Absorbance 410 (sample)/Absorbance 410 (Zero HA)×100.
Adult HDF (facial, passage 2, Cell Applications, San Diego, Calif. cat.#106-05A lot#1392) were plated in high glucose phosphate-free DMEM supplemented with 5% cosmic serum from Hyclone, Utah) at 6,000 cells per well and test materials were added the following day. Test materials were: hexapeptide (SEQ ID NO:2 (non-palmitylated), lyophilized powder lot #D294, received from DermaCare Neuroscience Institute), type I sterile water (negative control) and basic fibroblast growth factor (bFGF, positive control). Pal-Hexapeptide was dissolved in water at 20 mg/ml. Final concentrations tested were: 2000, 1000, 500 and 250 ug/ml for hexapeptide and 5 ng/ml for bFGF (plate 507). After 96 h, cell culture conditioned media were collected and 100 ul aliquotes were used for the HA assay. HA assay was performed using Hyaluronan Enzyme-Linked Immunosorbent Assay Kit (HA-ELISA, cat. #K-1200) from Echelon (Salt Lake City, Utah). The HA output was measured by following the generation of a chromophoric reaction product in 96 well plate, with the use of a BioRad microplate reader at 410 nm and the effect of the test materials was determined using the formula: Absorbance 410 (sample)/Absorbance 410 (Zero HA)×100.

With `CCCCCCCCCCCCCCCC(=O)N[C@@H](Cc1ccccc1)C(=O)N[C@@H](CO)C(=O)N[C@@H](CCCNC(=N)N)C(=O)N[C@@H](Cc1ccc(O)cc1)C(=O)N[C@@H](C)C(=O)N[C@@H](CCCNC(=N)N)C(=O)O` [Pal 6 mer, Pal-FSRYAR] (Palmitoyl-FSRYAR-OH; C-terminus assumed) the “nitric oxide production induced by Gamma-interferon, % of the control” value ([1]; 0.1 μM) was 92%, the “nitric oxide production induced by Gamma-interferon, % of the control” value ([1]; 1 μM) was 72% and the “nitric oxide production induced by Gamma-interferon, % of the control” value ([1]; 10 μM) was 57%. The “nitric oxide production induced by Gamma-interferon, % of the control” value ([1]; 100 μM) was 24%, the “nitric oxide production induced by Gamma-interferon, % of the control” value ([1]; 1000 μM) was 31% and the “inhibition of human keloid fibroblast cells, dose response study” value ([2]; 10^−5 M or 10 micrograms per milliliter) was “highly effective”. For the same compound, the “inhibition of proliferation of human keloid fibroblasts” value ([2]; listed as MNTF) was “statistically significant”, the “inhibition of proliferation of human keloid fibroblasts” value ([2]; listed as Pal-Hexapeptide) was “dose-dependent reduction/inhibition” and the “stimulation of hyaluronic acid in the fibroblast-conditioned medium” value (“stimulation of hyaluronic acid” below) ([3]; 50 ug/ml) was “about 15%”. For the same compound, the “stimulation of hyaluronic acid” value ([3]; 100 ug/ml) was “about 15%”, the “stimulation of hyaluronic acid” value ([3]; 200 ug/ml) was 40% and the “stimulation of hyaluronic acid” value ([3]; 400 ug/ml) was 40%.
